Key:
[1] = target: T1, cannabinoid receptor 1 (CB1) (Homo sapiens, UniProt P21554); test: GTPase-Glo GTP turnover assay with purified CB1 and Gi1, […] ligand; format: biochemical
Target sequence in this assay (P21554 whole entry): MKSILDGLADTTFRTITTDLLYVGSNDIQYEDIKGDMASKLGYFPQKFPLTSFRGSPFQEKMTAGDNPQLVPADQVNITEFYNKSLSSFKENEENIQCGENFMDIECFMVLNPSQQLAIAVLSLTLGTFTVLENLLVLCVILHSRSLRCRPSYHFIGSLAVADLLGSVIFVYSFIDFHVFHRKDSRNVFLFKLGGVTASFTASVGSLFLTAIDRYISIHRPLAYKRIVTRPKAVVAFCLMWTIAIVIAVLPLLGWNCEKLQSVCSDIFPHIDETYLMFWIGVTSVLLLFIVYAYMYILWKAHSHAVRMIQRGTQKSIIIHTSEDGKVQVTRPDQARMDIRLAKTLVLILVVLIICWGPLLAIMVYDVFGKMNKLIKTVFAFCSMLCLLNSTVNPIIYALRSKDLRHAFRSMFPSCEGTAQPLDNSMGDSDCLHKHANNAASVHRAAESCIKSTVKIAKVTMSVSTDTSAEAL
Target sequence in this assay (P63096 2-354 partner): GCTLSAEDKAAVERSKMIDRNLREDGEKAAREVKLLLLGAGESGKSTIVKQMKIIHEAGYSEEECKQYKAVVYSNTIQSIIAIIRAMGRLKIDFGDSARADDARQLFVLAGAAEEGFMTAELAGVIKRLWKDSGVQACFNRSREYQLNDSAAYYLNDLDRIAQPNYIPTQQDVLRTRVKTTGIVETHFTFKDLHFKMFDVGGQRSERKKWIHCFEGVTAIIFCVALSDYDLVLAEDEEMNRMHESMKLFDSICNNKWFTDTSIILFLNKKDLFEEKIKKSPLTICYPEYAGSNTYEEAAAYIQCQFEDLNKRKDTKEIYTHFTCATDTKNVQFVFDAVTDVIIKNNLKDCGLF

[2] = target: T1, cannabinoid receptor 1 (CB1); test: CB1 radioligand binding assay
Target sequence in this assay (P21554 whole entry): as the sequence (P21554 whole entry) above

| Compound | GTPase-Glo GTP turnover assay with purified CB1 and Gi1, 20 uM ligand [1] | IC50 [2] |
| --- | --- | --- |
| C[C@H](NC(=O)C(C)(C)Oc1ccc(C(F)(F)F)cn1)[C@@H](Cc1ccc(Cl)cc1)c1cccc(C#N)c1 [taranabant] | GTPase-Glo assay reveals rimonabant and taranabant to decrease GTP turnover compared with Apo |  |
| BODIPY517/547-genistein |  | 375 nM |

From paper PMC9400797 (Cell, 2022)
